{"source": "patent US20240408175A1", "about": "“BMP9 OR AN AGONIST THEREOF AND ITS USES RELATED TO REDUCING METASTASIS OF CANCER” (THE UAB RESEARCH FOUNDATION, priority 2021, published 2024)", "key": {"PA1 cells": {"system": "PA1 cells", "assay": "Sulforhodamine B (SRB) growth assay, attached 2D", "format": "cell-based, human", "conditions": "10 nM, 3 days"}, "PA1-luc-GFP cells": {"system": "PA1-luc-GFP cells", "assay": "PA1-luc-GFP intraperitoneal xenograft", "format": "in vivo, NOD-SCID mice", "protocol": "(§1) All animal studies were performed in accordance with the Institutional Animal Care and Use Committee at the University of Alabama Birmingham. Female SCID mice (Key resources table) at 5-7 weeks of age were housed under pathogen-free conditions at the Animal Research Facility at UAB. 1.5×10^6 GFP-luciferase SK-OV3 cells or 3×10^6 GFP-luciferase expressing PA1 cells were intraperitoneally injected. Mice were monitored daily, with girth and weight measurement taken twice a week. Tumor progression was tracked weekly using the IVIS Lumina III In vivo Imaging System (Caliper Life Sciences, MA) at UAB's Small Animal Imaging Facility. rhBMP9 was administered at the time of tumor cell injection followed by daily intraperitoneal (i.p.) injections of 1 mg/mL in 4 mM HCl+PBS+DI water (Vehicle), to achieve a final 5 mg/kg dose. For metastasis and tumor growth analysis, mice were euthanized between 21-50 days depending on the cell line. At necropsy, ascites, if present, were collected and volumes measured when possible, tumor weights in the omentum and other organs were recorded and collected when possible. For survival studies, mice that reached end-point criteria, including continued weight loss, respiratory trouble and permanent recumbency were euthanized. For microscopic analysis of tissues, formalin-fixed tissues were processed, paraffin-embedded, and sectioned at 5 μm thickness and H&E stained at UAB's histology core.\n(§2) IHC was performed using the BioCare Mach4 Universal Detection Kit. Specifically, anti-SOX2 was diluted in Da Vinci Green Diluent and incubated overnight at 4° C. in a humidified chamber. HRP was detected with 3,30-diaminobenzidine (DAB) substrate for 4 minutes. TUNEL staining was performed according to the manufacturer's instruction. Slides were examined and images captured with EVOS M7000 microscope. Cell profiler (Stirling et al., 2021) and Image J Fiji software were used for image quantification."}, "SKOV3-luc-GFP cells": {"system": "SKOV3-luc-GFP cells", "assay": "SKOV3-luc-GFP intraperitoneal xenograft", "format": "in vivo, NOD-SCID mice", "protocol": "as §1, §2"}, "SOX2 [1]": {"system": "SOX2", "assay": "SOX2 expression by Western blot / qRT-PCR in cancer cells", "format": "cell-based, human", "protocol": "Lysate and RNA preparation: 100,000-300,000 cells were seeded in a poly-HEMA coated 6-well plate for indicated times in full serum unless indicated otherwise. Cells were collected by centrifugation and lysed with trizol for RNA extraction or direct 2× lysis buffer for protein lysates.\nXenograft data were analyzed using parametric statistics as described in the legends. Survival curves were analyzed with log-rank statistics. In vitro experiments were analyzed using parametric statistics (ANOVA global test with Dunnett's/Sidak multiple comparison test as post-hoc tests as applicable and described in legend) and presented as the mean±SEM. All real time PCR's are relative semi quantitative RT-PCR's (hereby referred to as qRT-PCR) and are a combined quantitation of a minimum of 3 independent biological trials assayed in triplicate with biological replicates represented as individual scatter dots in the graphs or as indicated in legends. In all cases, statistical significance was set at a threshold of p<0.05. All statistical analyses were conducted with GraphPad Prism Software Ver. 9.0 and specific statistical test information described in figure legends."}, "SOX2 [2]": {"system": "SOX2", "assay": "SOX2 levels in xenograft tumors (IHC, qRT-PCR)", "format": "in vivo", "conditions": "IHC and qRT-PCR, vs vehicle control-treated mice", "protocol": "as §2"}, "[3]": {"system": "SOX2 promoter methylation", "assay": "Methylation-specific qPCR of SOX2 promoter", "format": "cell-based, human", "conditions": "PA1, rhBMP9 24 h", "protocol": "Genomic DNA was extracted, and bisulfite conversion was performed on 500 ng of gDNA using the MethylAmp DNA modification kit according to manufacturer's instructions. Relative quantitative RT-PCR (qPCR) was performed with methylation-specific and unmethylation-specific primers (see Table 3)."}, "A2780CP cells": {"system": "A2780CP cells", "assay": "Cell survival under anchorage independence, A2780CP", "format": "cell-based, human", "conditions": "dose and time course", "protocol": "For Live/Dead analysis under anchorage independence, 1,000 cells were seeded in 96-well hydrogel-coated ultra-low attachment (ULA) plates (Corning #4515) for times indicated. Growth factor treatment was done under low serum 2.5% FBS condition (Cells were plated in 10% FBS to allow spheroid formation before beginning treatment). Cells were then stained with 2 μM Calcein-AM and 4 μM Ethidium-homodimer for 30 min before imaging. z-stacked images were obtained using the Zeiss LSM700 Confocal microscope (Microscopy and Flow Cytometry Core, University of South Carolina) and NIKON A1 Confocal microscope (UAB High Resolution Imaging Facility). Fluorescent quantification was performed using ImageJ Fiji software to calculate the Corrected Total Cell Fluorescent (CTCF)=Integrated Density−(Area of selected cell×Mean fluorescence of background readings) per spheroid."}, "HEY-T30 cells": {"system": "HEY-T30 cells", "assay": "Flow cytometry, Annexin V / PI apoptosis", "format": "cell-based, human", "conditions": "3D, 48 hours; 10 nM BMP9, 300 nM paclitaxel or combination", "protocol": "700,000 cells were seeded in 60 mm poly-hema coated culture dishes, followed by incubation with 300 nM paclitaxel and 10 nM BMP9 alone or in simultaneous combination for 48 hours. Cells were centrifuged and resuspended in 1×binding buffer, followed by incubation with Annexin V and PI according to the manufacturer's procedure manual. The stained cell suspension was added to FACS tubes containing 200 μl 1×binding buffer and measured by BD LSRFortessa flow cytometer. The data were analyzed using BD FACSDiva (Becton Dickinson, NJ, USA) software. Annexin V-positive and PI-negative cells were considered to be in the early apoptotic phase, Annexin V-negative and PI-positive cells were considered to be in the necrosis phase, cells having positive staining for both Annexin-V and PI were considered to undergo late apoptosis and cells negative for Annexin V and PI were considered to be live cells."}}}
{"substance": "BMP9: recombinant human bone morphogenetic protein 9 (BMP9/GDF2), TGF-β family ligand", "values": [{"measurement": "cell growth", "setting": "PA1 cells", "value": "did not alter"}, {"measurement": "omental tumor burden", "setting": "PA1-luc-GFP cells; 5 mg/kg i.p. daily, 7-week study, vs vehicle", "value": "significantly lower"}, {"measurement": "overall i.p. tumor burden over time by bioluminescence imaging", "setting": "PA1-luc-GFP cells; 5 mg/kg i.p. daily, vs vehicle", "value": "significant reduction"}, {"measurement": "infiltrated tumor cells in omental tumors (histology)", "setting": "PA1-luc-GFP cells; vs vehicle", "value": "significantly fewer"}, {"measurement": "increase in TUNEL-positive cells in tumors", "setting": "PA1-luc-GFP cells; vs vehicle-treated mice", "value": "a factor of two increase"}, {"measurement": "mice with detectable ascites", "setting": "SKOV3-luc-GFP cells; 5 mg/kg i.p. daily", "value": "none"}, {"measurement": "intraperitoneal tumor growth by BLI in the abdomen", "setting": "SKOV3-luc-GFP cells; 5 mg/kg i.p. daily, day 16, vs vehicle", "value": "significantly lower"}, {"measurement": "infiltrated tumor cells in omental tumors (histology)", "setting": "SKOV3-luc-GFP cells; vs vehicle", "value": "significantly fewer"}, {"measurement": "increase in TUNEL-positive cells in tumors", "setting": "SKOV3-luc-GFP cells; vs vehicle-treated mice", "value": 143}, {"measurement": "SOX2 expression in other cancer types", "setting": "SOX2 [1]; A549, BON-1, H727 cells, 24 hours", "value": "downregulated"}, {"measurement": "SOX2 in patient ascites-derived tumor cells", "setting": "SOX2 [1]; EOC15 and AF68, anchorage-independent, 48 hours", "value": "downregulated"}, {"measurement": "anchorage-independence-induced increases in SOX2", "setting": "SOX2 [1]; OVCAR4, OVCA420, OVCA433 cells, 3D", "value": "effectively suppressed"}, {"measurement": "dose-response of SOX2 protein", "setting": "SOX2 [1]; PA1 and OVCAR3, indicated doses, 24 h", "value": "dose-dependent repression"}, {"measurement": "SOX2 by qRT-PCR in anchorage-independent conditions", "setting": "SOX2 [1]; PA1 cells, 3D, 24 hrs", "value": "downregulation"}, {"measurement": "reduction in SOX2 expression under attached growth conditions", "setting": "SOX2 [1]; several cell lines incl. OVCAR3 and SKOV3, 10 nM, 24 hours", "value": "significant"}, {"measurement": "SOX2 levels in xenograft tumors", "setting": "SOX2 [2]", "value": "overall reduction"}, {"measurement": "increase in SOX2 promoter methylation compared with control cells", "setting": "[3]", "value": 2.53}, {"measurement": "decrease in percentage live cells", "setting": "A2780CP cells", "value": "25-55%"}, {"measurement": "apoptosis in cells", "setting": "HEY-T30 cells", "value": 6.8, "unit": "%"}]}
